Measured values reported in patent publication US6984649B1, “Pyridine derivatives” (Bayer Aktiengesellschaft, priority 2000, dated 2006).

The compounds below were run against T1, human IKK-β (Homo sapiens, UniProt O14920) (assay: IKK-β kinase inhibitory assay). Settings: compounds as yielded by solid phase synthesis, purity about 40 to 90%, read-out: In vitro activity grade (In vitro IC50).
T1 construct: A cDNA fragment encoding human IKK-β open reading frame was generated by PCR; His tag (from pcDNA3.1/His C); made in house; host or cells: Sf21 insect cells (baculovirus); substrate made in E. coli
T1 sequence (O14920 1-756): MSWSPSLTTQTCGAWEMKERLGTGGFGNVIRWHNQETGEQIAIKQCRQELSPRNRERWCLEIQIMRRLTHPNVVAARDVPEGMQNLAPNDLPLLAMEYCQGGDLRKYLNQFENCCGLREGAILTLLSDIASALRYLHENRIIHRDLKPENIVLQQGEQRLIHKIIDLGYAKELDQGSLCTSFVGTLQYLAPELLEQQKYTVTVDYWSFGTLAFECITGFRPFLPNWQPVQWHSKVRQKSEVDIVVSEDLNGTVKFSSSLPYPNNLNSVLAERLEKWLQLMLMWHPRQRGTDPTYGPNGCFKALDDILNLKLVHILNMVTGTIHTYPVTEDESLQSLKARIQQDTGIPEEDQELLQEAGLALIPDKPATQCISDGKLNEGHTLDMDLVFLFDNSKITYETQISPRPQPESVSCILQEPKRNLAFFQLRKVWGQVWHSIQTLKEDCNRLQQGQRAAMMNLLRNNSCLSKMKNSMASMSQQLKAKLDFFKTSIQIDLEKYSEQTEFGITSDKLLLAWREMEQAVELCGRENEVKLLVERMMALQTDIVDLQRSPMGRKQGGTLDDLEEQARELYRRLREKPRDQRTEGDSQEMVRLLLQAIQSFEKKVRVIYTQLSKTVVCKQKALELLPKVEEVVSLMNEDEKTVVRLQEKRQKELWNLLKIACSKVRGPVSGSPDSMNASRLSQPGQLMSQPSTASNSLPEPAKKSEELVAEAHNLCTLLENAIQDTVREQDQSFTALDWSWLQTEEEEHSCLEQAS
Format: biochemical
Procedure, shortened: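 Radiometric read-out: streptavidin capture of 33P-labelled bio-GST-IκBα(1-54), 0.2 μM, after a 2 h room-temperature reaction started with ATP/[γ-33P]ATP. Enzyme was recombinant His-tagged human IKK-β expressed in Sf21 insect cells, used at 0.6 μg/ml in Tris-HCl pH 7.6/MgCl2 kinase buffer. Compounds added in 2.5% DMSO.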

Row | IC50 [nM] | Compound
1 | < 500 | CC(C)OC(=O)N1Cc2c(C3CCCNC3)cc(-c3c(O)cccc3OCC3CC3)nc2NC1=O (stereo not drawn) [Example 24-05]
2 | < 500 | CC(C)COC(=O)N1Cc2c(C3CCCNC3)cc(-c3c(O)cccc3OCC3CC3)nc2NC1=O (stereo not drawn) [Example 24-06]
3 | < 500 | CC(C)(C)COC(=O)N1Cc2c(C3CCCNC3)cc(-c3c(O)cccc3OCC3CC3)nc2NC1=O (stereo not drawn) [Example 24-07]
4 | < 500 | CN(C)C(=O)N1Cc2c(C3CCCNC3)cc(-c3c(O)cccc3OCC3CC3)nc2NC1=O (stereo not drawn) [Example 24-08]
5 | < 500 | NC(=O)N1Cc2c(C3CCCNC3)cc(-c3c(O)cccc3OCC3CC3)nc2NC1=O (stereo not drawn) [Example 24-10]

Continued, compound first:

Row | Compound | IC50 [nM]
6 | O=C1Nc2nc(-c3c(O)cccc3OCc3ccccc3)cc(C3CCNCC3)c2CO1 [Example 18-16] | < 500
7 | CC(=O)NCc1c(C2CCCNC2)cc(-c2ccccc2O)nc1N (stereo not drawn) [Example 23-04] | < 500
8 | Nc1nc(-c2ccccc2O)cc(C2CCCNC2)c1CNC(=O)C1CC1 (stereo not drawn) [Example 23-05] | < 500
9 | CCC(=O)NCc1c(C2CCCNC2)cc(-c2ccccc2O)nc1N (stereo not drawn) [Example 23-06] | 500 to 2000
10 | CC(=O)NCc1c(C2CCNCC2)cc(-c2c(O)cccc2OCC2CC2)nc1N [Example 23-07] | < 500
11 | CC(C)OC(=O)NCc1c(C2CCCNC2)cc(-c2c(O)cccc2OCC2CC2)nc1N (stereo not drawn) [Example 23-08] | < 500
12 | CC(C)COC(=O)NCc1c(C2CCCNC2)cc(-c2c(O)cccc2OCC2CC2)nc1N (stereo not drawn) [Example 23-09] | < 500
13 | CC(C)(C)COC(=O)NCc1c(C2CCCNC2)cc(-c2c(O)cccc2OCC2CC2)nc1N (stereo not drawn) [Example 23-10] | < 500
14 | CN(C)C(=O)NCc1c(C2CCCNC2)cc(-c2c(O)cccc2OCC2CC2)nc1N (stereo not drawn) [Example 23-11] | < 500
15 | CCCNC(=O)NCc1c(C2CCCNC2)cc(-c2c(O)cccc2OCC2CC2)nc1N (stereo not drawn) [Example 23-12] | < 500
16 | NC(=O)NCc1c(C2CCCNC2)cc(-c2c(O)cccc2OCC2CC2)nc1N (stereo not drawn) [Example 23-13] | < 500
17 | Nc1nc(-c2c(O)cccc2OCC2CC2)cc(C2CCCNC2)c1CNC(=O)Nc1ccccc1 (stereo not drawn) [Example 23-14] | < 500
18 | Nc1nc(-c2c(O)cccc2OCC2CC2)cc(C2CCCNC2)c1CNC(=S)Nc1ccccc1 (stereo not drawn) [Example 23-15] | < 500
